Source: BigSolDB 2.1

O=C(O)c1ccco1
Conditions | solubility (mole fraction)
in acetone, 280.15 K | 0.153
in acetone, 283.25 K | 0.159
in acetone, 288.55 K | 0.172
in acetone, 293.25 K | 0.189
in acetone, 299.15 K | 0.206
in acetone, 302.95 K | 0.218
in acetone, 308.45 K | 0.237
in acetone, 315.75 K | 0.265
in ethanol, 279.35 K | 0.152
in ethanol, 282.75 K | 0.162
in ethanol, 287.35 K | 0.176
in ethanol, 294.55 K | 0.198
in ethanol, 297.65 K | 0.208
in ethanol, 303.05 K | 0.225
in ethanol, 310.15 K | 0.25
in ethanol, 313.75 K | 0.268
in ethanol, 320.75 K | 0.29
in ethanol, 325.75 K | 0.311
in ethyl acetate, 281.35 K | 0.0858
in ethyl acetate, 287.05 K | 0.0983
in ethyl acetate, 291.95 K | 0.11
in ethyl acetate, 296.55 K | 0.124
in ethyl acetate, 301.25 K | 0.137
in ethyl acetate, 305.15 K | 0.147
in ethyl acetate, 307.45 K | 0.157
in ethyl acetate, 312.15 K | 0.171
in ethyl acetate, 316.35 K | 0.191
in ethyl acetate, 322.35 K | 0.216
in methyl acetate, 280.85 K | 0.106
in methyl acetate, 284.15 K | 0.117
in methyl acetate, 287.75 K | 0.127
in methyl acetate, 291.65 K | 0.137
in methyl acetate, 295.05 K | 0.146
in methyl acetate, 298.75 K | 0.156
in methyl acetate, 302.35 K | 0.166
in methyl acetate, 308.25 K | 0.184
in methyl acetate, 316.35 K | 0.216
in methyl acetate, 319.35 K | 0.232
in n-propanol, 282.95 K | 0.138
in n-propanol, 288.35 K | 0.158
in n-propanol, 293.75 K | 0.176
in n-propanol, 297.55 K | 0.195
in n-propanol, 303.15 K | 0.208
in n-propanol, 307.65 K | 0.226
in n-propanol, 312.55 K | 0.244
in n-propanol, 315.45 K | 0.258
in n-propanol, 319.75 K | 0.273
in n-propanol, 326.15 K | 0.3
in water, 284.85 K | 0.0032
in water, 295.25 K | 0.0064
in water, 299.45 K | 0.0079
in water, 304.65 K | 0.0095
in water, 310.65 K | 0.0127
in water, 313.25 K | 0.0156
in water, 316.85 K | 0.0184
in water, 319.45 K | 0.022
in water, 321.95 K | 0.0282
in water, 324.75 K | 0.0342
